In patent US12225904B2, “Phenylpyrazole compound and method for controlling plant disease” (SUMITOMO CHEMICAL COMPANY, LIMITED, priority 2019, dated 2025):

Tested on: soybean powdery mildew (Microsphaera diffusa)
Test: Test Example 13: control test against soybean powdery mildew, foliar spray after inoculation
Assay type: in vivo
Conditions: 200 ppm foliar spray 2 days after inoculation; soybean cv Kurosengoku

**Q.** With `CCS(=O)(=O)n1ccc(-c2ccc(Cl)c([N+](=O)[O-])c2)n1` [compound 36] as the compound, how does the “lesion area compared to the lesion area in an untreated soybean” value read?
**A.** ≤ 30%
